Molecular target: T1, DNA gyrase B (E. coli DNA gyrase, supercoiling) (Escherichia coli, UniProt P0AES6)
T1 construct: gene gyrB; with DNA gyrase subunit A (GyrA)
Test: E. coli DNA gyrase supercoiling microplate assay kit (Inspiralis)
Format: biochemical

| Structure (SMILES) | IC50 [µM] |
| --- | --- |
| CC(=NNc1nc(C)c(N=Nc2ccccc2)s1)c1cc2ccc(O)cc2oc1=O [6a, 7-Hydroxy-3-(-1-{2-[4-methyl-5-(phenyldiazenyl)thiazol-2-yl]hydrazono}ethyl)-2H-chromen-2-one] | 56.6 |
| CC(=NNc1nc(C)c(N=Nc2ccc(F)cc2)s1)c1cc2ccc(O)cc2oc1=O [6c, 3-(-1-{2-[5-((4-fluorophenyl)diazenyl)-4-methylthiazol-2-yl]hydrazono}ethyl)-7-hydroxy-2H-chromen-2-one] | 93.4 |

— article PMC12447640, “Design, synthesis, and biological assessment of a novel series of coumarin-tethered thiazole derivatives as potential antibacterial agents” (Frontiers in Chemistry, 2025)
